The text below walks through data of US6420409B1, “Benzimidazole derivatives” (Fujisawa Pharmaceutical Co., Ltd., priority 1997, dated 2002).

This assay has as its system db/db mice. The assay is described as follows: Test for Activity of Decreasing Plasma Glucose using db/db Mice. The class given is in vivo. As to conditions: female db/db mice, dose of 10 mg/kg, mixed with powdered chow (0.01%), 14 days, difference between db/db and +/+ mouse groups defined as 100%. From the text:
Test Example: Test for Activity of Decreasing Plasma Glucose using db/db Mice
1-(Isoquinolin-3-ylmethyl)-2-methyl-6-(1-pentanesulfonyl-carbamoyl)benzimidazole (13)
Five-week-old female mice [C57BL/KsJ-dbm db+/db+, C57BL/KsJ-dbm +m/+m (Jackson Laboratory) were purchased, and were kept for 2 to 3 weeks. Then, these mice were used in the test.
A test compound was mixed with a powdered chow (CE-2, made by Nippon Clea) using a mortar. The mixing ratio was 0.01%. The mixed chow was changed twice a week. The feed amount and the remaining amount were recorded, and the intake was calculated from the difference therebetween.
The female db/db mice were grouped according to the body weight, the plasma glucose and the plasma triglyceride concentrations. […] Plasma glucose, triglyceride, and insulin concentrations were measured on day 0 and day 14 as well as plasma glucose and triglyceride concentrations on day 7. The body weight was measured on day 0, day 7 and day 14. […]
The plasma glucose was measured by a glucose oxidase method (Glucose CII-Test Wako made by Wako Pure Chemical Industries, Ltd.) using from 10 to 15 μl of plasma. The plasma triglyceride concentration was measured by a GPO-p-chlorophenol method (Triglyceride G-Test Wako made by Wako Pure Chemical Industries, Ltd.) or a GPO-DAOS method (Triglyceride E-Test Wako) using from 10 to 15 μl of plasma. […]

For `CCCCCS(=O)(=O)NC(=O)c1ccc2nc(C)n(Cc3cc4ccccc4cn3)c2c1` [Compound 13, 1-(Isoquinolin-3-ylmethyl)-2-methyl-6-(1-pentane-sulfonylcarbamoyl)benzimidazole], the “plasma glucose decreasing activity” value was 44%. The same compound returned a TG concentration-decreasing activity (plasma triglyceride) of 77%.
